Measured values: patent US6933309B2, “Halogenobenzyl aminopropionic acid derivatives” (Toaeiyo Ltd., priority 2002, dated 2005)
Where two headings read alike, the source gives them in different places.

What was measured:
[1] = test system: male KKA^y mice (obesity/noninsulin-dependent diabetes mellitus model); experiment: Blood glucose lowering effect and blood lipid (blood TG and blood FFA) lowering effect in mice; type: in vivo; conditions: 1 mg/kg/day oral, once a day over seven days, plasma on the day following final administration, vs control group; for inhibition in vivo at 1 mg/kg/day: Mus musculus, po, 168 h
Description: Blood glucose Lowering Effect and Blood Lipid (Blood TG and Blood FFA) Lowering Effect in Mice
Each of the test compounds was suspended in a 0.5-%(w/v) sodium CMC solution, and the suspension was forcedly administered via oral route once a day over seven days to male KKA^y mice (obesity/noninsulin-dependent diabetes mellitus model, 6 to 7 weeks old, 3 to 5 animals per group) (1 mg/kg/day). During this 7-day period, feed and water were taken ad libitum. On the day following the final administration, blood was drawn from the tail vein without anesthesia and centrifuged, to thereby prepare plasma samples. Plasma glucose level, plasma TG level, and plasma FFA level of the samples were determined through the enzymatic method by use of an L-type Wako Glu2 (Wako Pure Chemical Industries), an L-type Wako TG-H (Wako Pure Chemical Industries), and an NEFA-HA Test Wako (Wako Pure Chemical Industries), respectively, by means of a full-automated clinical chemistry analyzer (CL-8000, Shimadzu Corporation). Percent reduction was determined from the obtained values by use of the following equations.

KKA^y mice = experiment: Plasma adiponectin level in KKA^y mice after two weeks of oral administration; type: in vivo; conditions: over two weeks, 0.1, 0.3, or 1 mg/kg/day
Description: Separately, the present compound (1) or a salt thereof was orally administered to KKA^y mice over two weeks (0.1, 0.3, or 1 mg/kg/day), and plasma adiponectin level of each mouse was determined.

[2] = read-out: Percent reduction of blood FFA level
[3] = read-out: Percent reduction of blood TG level
[4] = read-out: Percent reduction of blood glucose level

| SMILES | melting point [°C] | inhibition in vivo at 1 mg/kg/day [1, 2] [%] | inhibition in vivo at 1 mg/kg/day [1, 3] [%] | inhibition in vivo at 1 mg/kg/day [1, 4] [%] | further results |
| --- | --- | --- | --- | --- | --- |
| Cc1oc(-c2ccccc2)nc1CCOc1ccc(C[C@H](NCc2ccc(F)cc2)C(=O)O)cc1.Cl | 198 to 200 |  |  |  |  |
| Cc1sc(-c2ccccc2)nc1CCOc1ccc(C[C@H](NCc2ccc(F)cc2)C(=O)O)cc1 [Compound 22, (S)-3-[4-[2-(5-Methyl-2-phenyl-1,3-thiazol-4-yl)ethoxy]phenyl]-2-(4-fluorobenzylamino)propionic Acid] | 192 to 195 | 36 | 53 | 33 |  |
| Cc1oc(-c2ccc(F)cc2)nc1CCOc1ccc(C[C@H](NCc2ccc(F)cc2)C(=O)O)cc1 [Compound 19, (S)-3-[4-[2-[2-(4-Fluorophenyl)-5-methyl-1,3-oxazol-4-yl]ethoxy]phenyl]-2-(4-fluorobenzylamino)propionic Acid] | 191 to 193 |  |  |  |  |
| Cc1oc(-c2ccccc2)nc1CCOc1ccc(C[C@H](NCc2ccccc2F)C(=O)O)cc1 [Compound 24, (S)-3-[4-[2-(5-Methyl-2-phenyl-1,3-oxazol-4-yl)ethoxy]phenyl]-2-(2-fluorobenzylamino)propionic Acid] | 191 to 193 |  |  |  |  |
| Cc1oc(-c2ccccc2)nc1CCOc1ccc(C[C@H](NCc2ccc(F)c(F)c2)C(=O)O)cc1 [Compound 26, (S)-3-[4-[2-(5-Methyl-2-phenyl-1,3-oxazol-4-yl)ethoxy]phenyl]-2-(3,4-difluorobenzylamino)propionic Acid] | 202 to 204 |  |  |  |  |
| Cc1oc(-c2ccccc2)nc1CCOc1ccc(C[C@H](NCc2ccc(F)cc2)C(=O)O)cc1 [Compound 18, (S)-3-[4-[2-(5-Methyl-2-phenyl-1,3-oxazol-4-yl)ethoxy]phenyl]-2-(4-fluorobenzylamino)propionic Acid] | 184.5 to 186.5 |  |  |  | Percent reduction of blood FFA level [1]: 27%; Percent reduction of blood TG level [1]: 40%; Percent reduction of blood glucose level [1]: 15%; effect of increasing plasma adiponectin level (KKA^y mice): particularly excellent effect of increasing plasma adiponectin level |
| Cc1sc(N2CCOCC2)nc1CCOc1ccc(C[C@H](NCc2ccc(F)cc2)C(=O)O)cc1 [Compound 23, (S)-3-[4-[2-[5-Methyl-2-(morpholin-4-yl)-1,3-thiazol-4-yl]ethoxy]phenyl]-2-(4-fluorobenzylamino)propionic Acid] | 192 to 194 |  |  |  |  |
| Cc1oc(-c2ccccc2)nc1CCOc1ccc(C[C@H](NCc2cccc(F)c2F)C(=O)O)cc1 [Compound 27, (S)-3-[4-[2-(5-Methyl-2-phenyl-1,3-oxazol-4-yl)ethoxy]phenyl]-2-(2,3-difluorobenzylamino)propionic Acid] | 173 to 175 | 16 | 48 | 40 |  |
| Cc1oc(-c2ccc(C(F)(F)F)cc2)nc1CCOc1ccc(C[C@H](NCc2ccc(F)cc2)C(=O)O)cc1 [Compound 21, (S)-3-[4-[2-[5-Methyl-2-(4-trifluoromethylphenyl)-1,3-oxazol-4-yl]ethoxy]phenyl]-2-(4-fluorobenzylamino)propionic Acid] | 202 to 204 |  |  |  |  |
| Cc1oc(-c2ccccc2)nc1CCOc1ccc(C[C@H](NCc2ccc(F)cc2F)C(=O)O)cc1 [Compound 25, (S)-3-[4-[2-(5-Methyl-2-phenyl-1,3-oxazol-4-yl)ethoxy]phenyl]-2-(2,4-difluorobenzylamino)propionic Acid] | 190 to 192 |  |  |  |  |
| Cc1ccc(-c2nc(CCOc3ccc(C[C@H](NCc4ccc(F)cc4)C(=O)O)cc3)c(C)o2)cc1 [Compound 20, (S)-3-[4-[2-[5-Methyl-2-(4-methylphenyl)-1,3-oxazol-4-yl]ethoxy]phenyl]-2-(4-fluorobenzylamino)propionic Acid] | 196 to 198 | 25 | 36 | 21 |  |
| Cc1oc(-c2ccccc2)nc1CCOc1ccc(C[C@H](NCc2ccccc2)C(=O)O)cc1 [Comparative Compound 1, (S)-3-[4-[2-(5-Methyl-2-phenyl-1,3-oxazol-4-yl)ethoxy]phenyl]-2-(benzylamino)propionic Acid] | 206 to 209 | -2 | 17 | 12 |  |

More lines, main results first:

| melting point [°C] | SMILES | inhibition in vivo at 1 mg/kg/day [1, 2] [%] | inhibition in vivo at 1 mg/kg/day [1, 3] [%] | inhibition in vivo at 1 mg/kg/day [1, 4] [%] | further results |
| --- | --- | --- | --- | --- | --- |
| 165 to 167 | Cc1oc(-c2ccccc2)nc1CCOc1ccc(C[C@H](NCc2c(F)cccc2F)C(=O)O)cc1 [Compound 28, (S)-3-[4-[2-(5-Methyl-2-phenyl-1,3-oxazol-4-yl)ethoxy]phenyl]-2-(2,6-difluorobenzylamino)propionic Acid] | 54 | 65 | 50 |  |
| 197 to 199 | Cc1oc(-c2ccccc2)nc1CCOc1ccc(C[C@H](NCc2ccc(Cl)cc2)C(=O)O)cc1 [Compound 31, (S)-3-[4-[2-(5-Methyl-2-phenyl-1,3-oxazol-4-yl)ethoxy]phenyl]-2-(4-chlorobenzylamino)propionic Acid] |  |  |  |  |
| 142 to 145 | Cc1oc(-c2ccccc2)nc1CCOc1ccc(C[C@@H](C(=O)O)N(C)Cc2ccc(F)cc2)cc1 [Compound 34, (S)-3-[4-[2-(5-Methyl-2-phenyl-1,3-oxazol-4-yl)ethoxy]phenyl]-2-[N-(4-fluorobenzyl)-N-methylamino]propionic Acid] |  |  |  |  |
| 143 to 145 | Cc1oc(-c2ccccc2)nc1CCOc1ccc(C[C@H](NCc2ccccc2Cl)C(=O)O)cc1 [Compound 32, (S)-3-[4-[2-(5-Methyl-2-phenyl-1,3-oxazol-4-yl)ethoxy]phenyl]-2-(2-chlorobenzylamino)propionic Acid] | 13 | 33 | 39 |  |
| 179 to 181 | Cc1oc(-c2ccccc2)nc1CCOc1ccc(C[C@H](NCc2ccc(F)cc2)C(=O)[O-])cc1.[Na+] [Compound 35, Sodium (S)-3-[4-[2-(5-methyl-2-phenyl-1,3-oxazol-4-yl)ethoxy]phenyl]-2-(4-fluorobenzylamino)propionate] | 33 | 47 |  | Percent reduction of blood glucose level [1]: 36% |
| 144 | CCOC(=O)[C@H](Cc1ccc(OCCc2nc(-c3ccccc3)oc2C)cc1)NCc1ccc(F)cc1.CS(=O)(=O)O [Compound 38, Ethyl(S)-3-[4-[2-(5-methyl-2-phenyl-1,3-oxazol-4-yl)ethoxy]phenyl]-2-(4-fluorobenzylamino)propionate methanesulfonate] | 16 | 33 | 25 |  |
| 196 to 199 | Cc1oc(-c2ccccc2)nc1CCOc1ccc(C[C@H](NCc2ccc(Br)cc2)C(=O)O)cc1 [Compound 33, (S)-3-[4-[2-(5-Methyl-2-phenyl-1,3-oxazol-4-yl)ethoxy]phenyl]-2-(4-bromobenzylamino)propionic Acid] |  |  |  |  |
| 168 to 170 | Cc1oc(-c2ccccc2)nc1CCOc1ccc(C[C@H](NCc2c(F)cc(F)cc2F)C(=O)O)cc1 [Compound 29, (S)-3-[4-[2-(5-Methyl-2-phenyl-1,3-oxazol-4-yl)ethoxy]phenyl]-2-(2,4,6-trifluorobenzylamino)propionic Acid] | 58 | 74 | 43 |  |
